Results published in US20050239841A1, “New compounds” (priority 2003, published 2005).
Counter-ions that a name gives are not always drawn.

Target: T1, human MCH1R receptor (Homo sapiens, UniProt Q99705)
T1 construct: host or cells: CHO-K1
Assay: MCH1R receptor binding by SPA ([125I]-MCH displacement)
Details: 0.2 nM [125I]-MCH, membranes of CHO-K1 cells expressing hMCH1 receptor, WGA SPA beads; Ki calculated from IC50
Protocol: The compounds according to the invention were evaluated for their binding to the human MCH1R receptor by the following method:
Compounds: MCH peptide was purchased from Phoenix pharmaceuticals. (Phe^13, [^125I]Tyr^19 Melanine-Concentrating Hormone (human, mouse, rat) ([^125I]-MCH) was obtained from NEN life Science Products. Inc. Boston, Mass. Wheat germ agglutinine SPA beads (RPNQ 0001) were obtained from Amersham-Pharmacia Biotech. All other reagents used are of highest purity from different resources available. Protein Kits, Micro BCA™ Protein Assay Reagent Kit (Cat No. 23235) were purchased from Piece, Rockford, Ill., USA.
CHO-K1 cells expressing hMCH1 receptor were purchased from Euroscreen.
CHO-K1 hMCHR1 (Euroscreen, Brussels, Belgium, # ES-370-C) were cultivated in Nutrient mixture Ham's F-12 with Glutamax I (Gibco-BRL #31765-027) supplemented with 10% heat-inactivated foetal calf serum (FCS, Gibco-BRL #10108-165) and 400 μg/ml geniticin (Gibco-BRL #1140-0359). The cells were sub-cultivated twice weekly with split ratio=1:20-1:30. For membrane preparation the cells were cultured in […] and the cells were harvested when 90% confluent.
When the cells reached more than 90% confluence, dishes (500 cm^2) were rinsed twice with 20 ml PBS (Ca^2+ and Mg^2+ free). Buffer A, which contains Tris.HCl (15), MgCl2.6H2O (2), EDTA (0.3), EGTA (1) in mM with pH 7.5, 25 ml was added and cells were suspended using a window scraper. The cells were collected in 50 ml Falcon tube pre-cooled on ice and then centrifuged for 3 minutes at 1500 g at 4° C. […]
The radio labeled [^125I]-MCH was diluted with cold MCH in ratio 1:3. […] The results were calculated using Excel program and the curves were drawn using a program GraphPad Prism.
For screening of the substances the amount of the beads used was 0.25 mg/well and the amount of the membrane protein was 4 μg/well 0.2 nM of labeled MCH was used. […] The samples were counted using Microbeta counter (Wallac Trilux 1450 Micro beta counter, Wallac, Finland) for 2 minutes and the results were calculated by using the computer program Activity Base. […]

T1 sequence (Q99705 whole entry): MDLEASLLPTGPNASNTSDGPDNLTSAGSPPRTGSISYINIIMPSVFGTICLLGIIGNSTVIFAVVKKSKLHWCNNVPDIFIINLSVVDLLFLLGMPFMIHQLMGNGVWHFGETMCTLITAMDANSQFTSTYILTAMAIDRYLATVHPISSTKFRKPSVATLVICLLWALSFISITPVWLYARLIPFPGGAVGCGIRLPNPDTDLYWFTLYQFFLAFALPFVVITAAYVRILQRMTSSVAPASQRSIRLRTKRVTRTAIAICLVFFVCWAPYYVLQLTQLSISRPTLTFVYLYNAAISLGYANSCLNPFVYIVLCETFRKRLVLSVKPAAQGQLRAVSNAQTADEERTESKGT

SMILES	Ki
COc1ccc([C@@]23CC[C@@H](NC(=O)Nc4ccc(OC(F)(F)F)cc4)C[C@@H]2N(C)CC3)cc1OC (relative stereo) [Example 70, N-[(3aS*,6R*,7aS*)-3a-(3,4-dimethoxyphenyl)-1-methyloctahydro-1H-indol-6-yl]-N′-[4-(trifluoromethoxy)phenyl]urea trifluoroacetate]	52 nM
CCOc1ccc([C@@]23CC[C@@H](NC(=O)Nc4ccc(F)c(F)c4)C[C@@H]2N(C)CC3)cc1OCC (relative stereo) [Example 208, N-[(3aS*,6R*,7aS*)-3a-(3,4-diethoxyphenyl)-1-methyloctahydro-1H-indol-6-yl]-N′-(3,4-difluoro]henyl)urea trifluoroacetate]	258 nM
C=CCN(C(=O)Nc1ccc(Cl)c(C(F)(F)F)c1)C1CCC2(c3ccc(OC)c(OC)c3)CCN(C)C2C1 (stereo not drawn) [Example 159, N-ally-N′-[4-chloro-3-(trifluoromethyl)phenyl]-N-[(3aS*,6R*,7aS*)-3a-(3,4-dimethoxyphenyl)-1-methyloctahydro-1H-indol-6-yl]urea]	75 nM
